According to patent publication US8952024B2, “Herbicidal pyrimidone derivatives” (E I du Pont de Nemours and Company, priority 2009, dated 2015):

Columns and labels:
Format in all cases: in vivo
[1] = test system: Surinam grass (Brachiaria decumbens); experiment: Test B pre-/postemergence plant response
Procedure, shortened: (§1)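 Ratings reflect visual comparison with untreated controls 13 to 15 days after application, from 0 (no effect) to 100 (complete control). Application was preemergence to seeded loam/sand soil or postemergence to 1- to 4-leaf plants, with compound in a non-phytotoxic, surfactant-containing solvent.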

[2] = test system: blackgrass (Alopecurus myosuroides); experiment: Test B pre-/postemergence plant response
Procedure, shortened: as §1

[3] = test system: corn (Zea mays); experiment: Test B pre-/postemergence plant response
Procedure, shortened: as §1

[4] = test system: giant foxtail (Setaria faberii); experiment: Test B pre-/postemergence plant response
Procedure, shortened: as §1

[5] = test system: goosegrass (Eleusine indica); experiment: Test B pre-/postemergence plant response
Procedure, shortened: as §1

[6] = test system: green foxtail (Setaria viridis); experiment: Test B pre-/postemergence plant response
Procedure, shortened: as §1

[7] = test system: johnsongrass (Sorghum halepense); experiment: Test B pre-/postemergence plant response
Procedure, shortened: as §1

[8] = test system: lambsquarters (Chenopodium album); experiment: Test B pre-/postemergence plant response
Procedure, shortened: as §1

[9] = test system: pigweed (Amaranthus retroflexus); experiment: Test B pre-/postemergence plant response
Procedure, shortened: as §1

[10] = test system: ragweed (common ragweed, Ambrosia elatior); experiment: Test B pre-/postemergence plant response
Procedure, shortened: as §1

[11] = test system: wild oat (Avena fatua); experiment: Test B pre-/postemergence plant response
Procedure, shortened: as §1

[12] = test system: rice (Oryza sativa); experiment: Test B flooded paddy test; settings: for Plant response rating, Flood, Rice: 250 g ai/ha, flooded paddy test, visual rating on 0 to 100 scale (0 no effect, 100 complete control) after 13 to 15 days; for Plant response rating, Rice: Flood (flooded paddy test), 62 g ai/ha, scale 0 to 100, 0 is no effect, 100 is complete control, 13 to 15 days
Procedure, shortened: (§2)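 Plants were grown to the 2-leaf stage, then pots were flooded to 3 cm above the soil and compounds were applied directly into the paddy water. That depth was held throughout. After 13 to 15 days in a greenhouse, injury was visually rated against controls on a 0–100 scale.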

[13] = test system: umbrella sedge (Cyperus difformis); experiment: Test B flooded paddy test; settings: for Plant response rating, Flood, Sedge, Umbrella: 250 g ai/ha, flooded paddy test, visual rating on 0 to 100 scale (0 no effect, 100 complete control) after 13 to 15 days; for Plant response rating, Sedge, Umbrella: Flood (flooded paddy test), 62 g ai/ha, scale 0 to 100, 0 is no effect, 100 is complete control, 13 to 15 days
Procedure, shortened: as §2

[14] = 250 g ai/ha, Preemergence, 0 to 100 scale
[15] = Postemergence, 62 g ai/ha, scale 0 (no effect) to 100 (complete control), 13 to 15 days
[16] = Postemergence, 125 g ai/ha, visual rating after 13 to 15 days, scale 0 (no effect) to 100 (complete control)
[17] = Preemergence, 31 g ai/ha, scale 0 to 100 (0 no effect, 100 complete control)
[18] = Preemergence, 125 g ai/ha, 0 to 100 scale
[19] = Postemergence, 31 g ai/ha, scale 0 to 100 (0 no effect, 100 complete control)
[20] = Postemergence, 250 g ai/ha, scale 0 to 100
[21] = Preemergence, 62 g ai/ha, scale 0 to 100 (0 no effect, 100 complete control)

In the case of `Cc1c(Cl)cccc1-n1c(-c2ccccc2)ncc(C(=O)C2=C(O)CCCC2=O)c1=O` [Compound 40], the “Plant response rating, Surinam Grass” value [1, 14] is reported as 90, the “Plant response rating, Surinam Grass” value [1, 15] is reported as 95 and the “Plant response rating, Surinam Grass” value [1, 16] is reported as 98. For the same compound, the “Plant response rating, Surinam Grass” value [1, 17] was 40, the “Surinam Grass plant response rating” value [1, 18] was 85 and the “Plant response rating, Blackgrass” value [2, 14] was 5. The “Plant response rating, Blackgrass” value [2, 19] was 0, the “Plant response rating, Blackgrass” value [2, 15] was 10 and the “Plant response rating, Blackgrass” value [2, 16] was 10. For the same compound, the “Blackgrass plant response rating” value [2, 20] was 15, the “Plant response rating, Blackgrass” value [2, 17] was 0 and the “Plant response rating, Blackgrass” value [2, 21] was 0. For the same compound, the “Blackgrass plant response rating” value [2, 18] was 0, the “Plant response rating, Corn” value [3, 14] was 0 and the “Plant response rating, Corn” value [3, 19] was 80. For the same compound, the “Plant response rating, Corn” value [3, 15] was 80, the “Plant response rating, Corn” value [3, 16] was 85 and the “Corn plant response rating” value [3, 20] was 90. For the same compound, the “Plant response rating, Corn” value [3, 17] was 0, the “Plant response rating, Corn” value [3, 21] was 0 and the “Corn plant response rating” value [3, 18] was 0. The “Plant response rating, Foxtail, Giant” value [4, 14] was 98, the “Plant response rating, Foxtail, Giant” value [4, 19] was 100 and the “Plant response rating, Foxtail, Giant” value [4, 15] was 100. The “Plant response rating, Foxtail, Giant” value [4, 16] was 100, the “Foxtail, Giant plant response rating” value [4, 20] was 100 and the “Plant response rating, Foxtail, Giant” value [4, 17] was 10. The “Plant response rating, Foxtail, Giant” value [4, 21] was 65, the “Foxtail, Giant plant response rating” value [4, 18] was 80 and the “Plant response rating, Goosegrass” value [5, 14] was 100. The “Plant response rating, Goosegrass” value [5, 15] was 90, the “Plant response rating, Goosegrass” value [5, 16] was 95 and the “Goosegrass plant response rating” value [5, 20] was 98. The “Plant response rating, Goosegrass” value [5, 17] was 80, the “Goosegrass plant response rating” value [5, 18] was 100 and the “Plant response rating, Foxtail, Green” value [6, 14] was 100. For the same compound, the “Plant response rating, Foxtail, Green” value [6, 19] was 90, the “Plant response rating, Foxtail, Green” value [6, 15] was 95 and the “Plant response rating, Foxtail, Green” value [6, 16] was 95. For the same compound, the “Foxtail, Green plant response rating” value [6, 20] was 95, the “Plant response rating, Foxtail, Green” value [6, 17] was 0 and the “Plant response rating, Foxtail, Green” value [6, 21] was 85. For the same compound, the “Foxtail, Green plant response rating” value [6, 18] was 85, the “Plant response rating, Johnsongrass” value [7, 14] was 90 and the “Plant response rating, Johnsongrass” value [7, 16] was 75. The “Johnsongrass plant response rating” value [7, 20] was 100, the “Plant response rating, Johnsongrass” value [7, 17] was 10 and the “Plant response rating, Johnsongrass” value [7, 21] was 80. For the same compound, the “Johnsongrass plant response rating” value [7, 18] was 85, the “Plant response rating, Lambsquarters” value [8, 14] was 100 and the “Plant response rating, Lambsquarters” value [8, 15] was 100. The “Plant response rating, Lambsquarters” value [8, 16] was 100, the “Lambsquarters plant response rating” value [8, 20] was 100 and the “Plant response rating, Lambsquarters” value [8, 17] was 100. The “Plant response rating, Lambsquarters” value [8, 21] was 100, the “Lambsquarters plant response rating” value [8, 18] was 100 and the “Plant response rating, Pigweed” value [9, 14] was 100. For the same compound, the “Plant response rating, Pigweed” value [9, 15] was 98, the “Plant response rating, Pigweed” value [9, 16] was 100 and the “Plant response rating, Pigweed” value [9, 17] was 98. For the same compound, the “Pigweed plant response rating” value [9, 18] was 100, the “Plant response rating, Ragweed” value [10, 14] was 95 and the “Plant response rating, Ragweed” value [10, 15] was 98. The “Plant response rating, Ragweed” value [10, 16] was 98, the “Plant response rating, Ragweed” value [10, 17] was 75 and the “Ragweed plant response rating” value [10, 18] was 90. The “Plant response rating, Oat, Wild” value [11, 14] was 30, the “Plant response rating, Oat, Wild” value [11, 15] was 85 and the “Plant response rating, Oat, Wild” value [11, 16] was 90. For the same compound, the “Plant response rating, Oat, Wild” value [11, 17] was 0, the “Oat, Wild plant response rating” value [11, 18] was 0 and the “Plant response rating, Flood, Rice” value [12] was 25. The “Plant response rating, Rice” value [12] was 0, the “Plant response rating, Flood, Sedge, Umbrella” value [13] was 85 and the “Plant response rating, Sedge, Umbrella” value [13] was 70.

With `CCCCc1ncc(C(=O)C2=C(O)CCCC2=O)c(=O)n1-c1ccccc1` [Compound 42] the “Plant response rating, Surinam Grass” value [1, 14] was 75, the “Plant response rating, Surinam Grass” value [1, 15] was 40 and the “Plant response rating, Surinam Grass” value [1, 16] was 45. For the same compound, the “Plant response rating, Surinam Grass” value [1, 17] was 0, the “Surinam Grass plant response rating” value [1, 18] was 10 and the “Plant response rating, Blackgrass” value [2, 14] was 5. For the same compound, the “Plant response rating, Blackgrass” value [2, 19] was 5, the “Plant response rating, Blackgrass” value [2, 15] was 10 and the “Plant response rating, Blackgrass” value [2, 16] was 15. The “Blackgrass plant response rating” value [2, 20] was 20, the “Plant response rating, Blackgrass” value [2, 17] was 0 and the “Plant response rating, Blackgrass” value [2, 21] was 0. For the same compound, the “Blackgrass plant response rating” value [2, 18] was 0, the “Plant response rating, Corn” value [3, 14] was 0 and the “Plant response rating, Corn” value [3, 19] was 0. For the same compound, the “Plant response rating, Corn” value [3, 15] was 10, the “Plant response rating, Corn” value [3, 16] was 20 and the “Corn plant response rating” value [3, 20] was 45. The “Plant response rating, Corn” value [3, 17] was 0, the “Plant response rating, Corn” value [3, 21] was 0 and the “Corn plant response rating” value [3, 18] was 0. The “Plant response rating, Foxtail, Giant” value [4, 14] was 10, the “Plant response rating, Foxtail, Giant” value [4, 19] was 45 and the “Plant response rating, Foxtail, Giant” value [4, 15] was 65. For the same compound, the “Plant response rating, Foxtail, Giant” value [4, 16] was 75, the “Foxtail, Giant plant response rating” value [4, 20] was 85 and the “Plant response rating, Foxtail, Giant” value [4, 17] was 0. The “Plant response rating, Foxtail, Giant” value [4, 21] was 0, the “Foxtail, Giant plant response rating” value [4, 18] was 10 and the “Plant response rating, Goosegrass” value [5, 14] was 100. The “Plant response rating, Goosegrass” value [5, 15] was 85, the “Plant response rating, Goosegrass” value [5, 16] was 90 and the “Goosegrass plant response rating” value [5, 20] was 95. For the same compound, the “Plant response rating, Goosegrass” value [5, 17] was 50, the “Goosegrass plant response rating” value [5, 18] was 100 and the “Plant response rating, Foxtail, Green” value [6, 14] was 85. The “Plant response rating, Foxtail, Green” value [6, 19] was 50, the “Plant response rating, Foxtail, Green” value [6, 15] was 55 and the “Plant response rating, Foxtail, Green” value [6, 16] was 60. For the same compound, the “Foxtail, Green plant response rating” value [6, 20] was 85, the “Plant response rating, Foxtail, Green” value [6, 17] was 65 and the “Plant response rating, Foxtail, Green” value [6, 21] was 65. The “Foxtail, Green plant response rating” value [6, 18] was 85, the “Plant response rating, Johnsongrass” value [7, 14] was 65 and the “Plant response rating, Johnsongrass” value [7, 15] was 0. For the same compound, the “Plant response rating, Johnsongrass” value [7, 16] was 40, the “Johnsongrass plant response rating” value [7, 20] was 65 and the “Plant response rating, Johnsongrass” value [7, 17] was 0. For the same compound, the “Plant response rating, Johnsongrass” value [7, 21] was 0, the “Johnsongrass plant response rating” value [7, 18] was 10 and the “Plant response rating, Lambsquarters” value [8, 14] was 100. For the same compound, the “Plant response rating, Lambsquarters” value [8, 15] was 95, the “Plant response rating, Lambsquarters” value [8, 16] was 100 and the “Lambsquarters plant response rating” value [8, 20] was 100. The “Plant response rating, Lambsquarters” value [8, 17] was 100, the “Plant response rating, Lambsquarters” value [8, 21] was 100 and the “Lambsquarters plant response rating” value [8, 18] was 100. For the same compound, the “Plant response rating, Pigweed” value [9, 14] was 100, the “Plant response rating, Pigweed” value [9, 15] was 95 and the “Plant response rating, Pigweed” value [9, 16] was 100. The “Plant response rating, Pigweed” value [9, 17] was 100, the “Pigweed plant response rating” value [9, 18] was 100 and the “Plant response rating, Ragweed” value [10, 14] was 80. The “Plant response rating, Ragweed” value [10, 15] was 75, the “Plant response rating, Ragweed” value [10, 16] was 85 and the “Plant response rating, Ragweed” value [10, 17] was 0. The “Ragweed plant response rating” value [10, 18] was 25, the “Plant response rating, Oat, Wild” value [11, 14] was 0 and the “Plant response rating, Oat, Wild” value [11, 15] was 10. The “Plant response rating, Oat, Wild” value [11, 16] was 10, the “Plant response rating, Oat, Wild” value [11, 17] was 0 and the “Oat, Wild plant response rating” value [11, 18] was 0. For the same compound, the “Plant response rating, Flood, Rice” value [12] was 20, the “Plant response rating, Rice” value [12] was 0 and the “Plant response rating, Flood, Sedge, Umbrella” value [13] was 30. For the same compound, the “Plant response rating, Sedge, Umbrella” value [13] was 30.
